From publication PMC5706701, “Development of a homogenous high-throughput assay for inositol hexakisphosphate kinase 1 activity” (PLoS ONE, 2017) come the findings set out here.

In the assay the target is T1, Human IP6K1 (Homo sapiens, UniProt Q92551).
T1 construct: GST (N, cleaved yes); made in house; host or cells: C43 E. coli, pGEX-6P-2
In words: IP6K1 high-throughput screen of the Sigma LOPAC (ADP-Glo Max, single point).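 Further: final compound concentration 10µM in 5% DMSO.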 In kind it is biochemical. (ADP-Glo first removes unused ATP, then detects ADP through luciferase.)

Where [1] appears, read: LOPAC single-point screen, ADP-Glo Max luminescence raw signal per well.
Setting [2] is: LOPAC single-point screen, Z-score relative to plate average and StDev.
The mark [3] stands for this setting: Sigma LOPAC single-point screen, ADP-Glo Max raw signal per well.
The mark [4] stands for this setting: Sigma LOPAC single-point screen, Z-score from plate average and StDev.
Where [5] appears, read: LOPAC single-point screen, ADP-Glo Max raw signal per well.
Setting [6] is: LOPAC single-point screen, Z-score against plate average and StDev.
Setting [7] is: LOPAC single-point screen, Z-score from raw signal with plate average and StDev.
The mark [8] stands for this setting: LOPAC single-point screen, Z-score from plate average and StDev.

Counter-ions that a name gives are not always drawn.

T1 sequence (Q92551 whole entry): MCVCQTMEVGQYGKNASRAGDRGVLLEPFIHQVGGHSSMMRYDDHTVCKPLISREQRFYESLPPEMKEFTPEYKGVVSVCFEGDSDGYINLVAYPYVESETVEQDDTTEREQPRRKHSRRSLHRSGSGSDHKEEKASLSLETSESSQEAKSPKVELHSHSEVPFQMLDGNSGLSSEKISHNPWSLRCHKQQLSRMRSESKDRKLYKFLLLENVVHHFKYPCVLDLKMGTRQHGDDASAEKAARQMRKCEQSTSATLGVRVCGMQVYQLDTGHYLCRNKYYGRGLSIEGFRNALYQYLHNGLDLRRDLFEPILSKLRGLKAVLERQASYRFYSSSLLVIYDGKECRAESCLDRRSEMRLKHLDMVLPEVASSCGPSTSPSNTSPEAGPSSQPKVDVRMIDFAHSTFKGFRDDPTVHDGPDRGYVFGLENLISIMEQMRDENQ

Take `C[C@H]1c2cccc(O)c2C(=O)C2=C(O)[C@]3(O)C(=O)C(C(N)=O)=C(O)[C@@H](N(C)C)[C@@H]3[C@@H](O)[C@@H]21` [Doxycycline hydrochloride]: under setting [1], the “Raw Signal” value is 51944. The compound further gave a Z-score under setting [2] of -0.6546.
Consider `CN(C)CCOC(C)(c1ccccc1)c1ccccn1` (centres unmarked) [Doxylamine succinate], for which the “Raw Signal” value under setting [1] is listed as 49925. Further, the Z-score under setting [2] is recorded as -1.065.
Consider `O=C(CCCN1CC=C(n2c(=O)[nH]c3ccccc32)CC1)c1ccc(F)cc1` [Droperidol], for which the “Raw Signal” value under setting [1] came to 49359. For the same compound, the Z-score under setting [2] is -1.18.
The like results for `COc1c2c(nc3ccccc13)OC(C(C)(O)CO)C2` (centres unmarked) [Dubinidine] were, in that order, 52835 and -0.4736.
For `CC(C)CC(NC(=O)C1OC1C(=O)O)C(=O)NCCCCNC(=N)N` (centres unmarked) [E-64], the “Raw Signal” value under setting [3] came to 60196. The Z-score under setting [4] came to 1.021.
As to `CCCCCCCCCCCCCCCCCCOCC(COP(=O)([O-])OCC[N+](C)(C)C)OC` (centres unmarked) [ET-18-OCH3], the “Raw Signal” value under setting [1] is listed as 51314. Under setting [2], the Z-score is on record as -0.7825.
In the case of `O=c1c2ccccc2[se]n1-c1ccccc1` [Ebselen], the “Raw Signal” value under setting [5] worked out at 54986. The Z-score under setting [6] is -0.03677.
As to `CC[N+](C)(C)c1cccc(O)c1` [Edrophonium chloride], the “Raw Signal” value under setting [3] is 58129. In addition, the Z-score under setting [4] was found to be 0.6015.
Consider `CCC1(C2=NCCN2)Cc2ccccc2O1` (centres unmarked) [Efaroxan hydrochloride], for which the “Raw Signal” value under setting [5] is 53966. Besides, the Z-score under setting [7] is -0.2439.
`Cc1c2ccncc2c(C)c2c1[nH]c1ccccc12` [Ellipticine]: the “Raw Signal” value under setting [1] stood at 50782. The compound also showed a Z-score under setting [2] of -0.8906.
Consider `CC[C@H]1CN2CCc3cc(OC)c(OC)cc3[C@@H]2C[C@@H]1C[C@H]1NCCc2cc(OC)c(OC)cc21` [Emetine dihydrochloride hydrate], for which, under setting [5], the “Raw Signal” value was 52998. This compound displayed a Z-score under setting [7] of -0.4405.
Turning to `Cc1cc(O)c2c(c1)C(=O)c1cc(O)cc(O)c1C2=O` [Emodin], under setting [3], the “Raw Signal” value is reported as 61234. This compound also showed a Z-score under setting [4] of 1.232.
Turning to `O=C(O)[C@@H]1[C@H](C(=O)O)[C@H]2CC[C@@H]1O2` [Endothall], the “Raw Signal” value under setting [3] stood at 58370. Moreover, the Z-score under setting [4] is 0.6505.
On to `CSc1ccc(C(=O)c2[nH]c(=O)[nH]c2C)cc1` [Enoximone], for which the “Raw Signal” value under setting [1] was 64614. The same compound came in with a Z-score under setting [8] of 1.919.
In the case of `CC(C)C[C@H](NC(=O)[C@H](O)[C@H](N)Cc1ccccc1)C(=O)O` [Epibestatin hydrochloride], the “Raw Signal” value under setting [5] is given as 58771. Under setting [6], this compound registered a Z-score of 0.1511.
For the compound `CC(C)[C@@]1(NC(=O)[C@@H]2C=C3c4cccc5[nH]cc(c45)C[C@H]3N(C)C2)O[C@@]2(O)[C@@H]3CCCN3C(=O)[C@H](Cc3ccccc3)N2C1=O` [Ergocristine], the “Raw Signal” value under setting [1] came to 51436. Besides, under setting [2], the Z-score is -0.7577.
As to `C[C@]12CC[C@@H]3c4ccc(O)cc4CC[C@H]3[C@@H]1CCC2=O` [Estrone], the “Raw Signal” value under setting [5] was determined as 53604. Further, the Z-score under setting [7] is -0.3174.
Consider `CCOC(=O)c1cnc2c(cnn2CC)c1NN=C(C)C` [Etazolate hydrochloride], for which the “Raw Signal” value under setting [1] amounted to 51155. This compound registered a Z-score under setting [2] of -0.8148.
Regarding `CCC1(C)CC(=O)NC1=O` (centres unmarked) [Ethosuximide], under setting [3], the “Raw Signal” value is 57090. Under setting [4], this compound returned a Z-score of 0.3905.
For `CCc1cccc2c3c([nH]c12)C(CC)(CC(=O)O)OCC3` (centres unmarked) [Etodolac] the same measures were 60333 and 1.049.
With `COc1cc([C@@H]2c3cc4c(cc3[C@@H](O[C@@H]3O[C@@H]5CO[C@@H](C)O[C@H]5[C@H](O)[C@H]3O)[C@H]3COC(=O)[C@H]23)OCO4)cc(OC)c1O` [Etoposide], under setting [5], the “Raw Signal” value is recorded as 53339. Also, the Z-score under setting [7] is listed as -0.3713.
With `COC(=O)c1c(C)[nH]c(C)c1C(=O)c1ccccc1Cc1ccccc1` [FPL 64176], the “Raw Signal” value under setting [5] was 56544. The compound also registered a Z-score under setting [6] of 0.2796.
`CCCn1c(=O)c2[nH]c(C3CCCC3)nc2n(CCCOC(=O)c2ccc(S(=O)(=O)F)cc2)c1=O` [FSCPX]: the “Raw Signal” value under setting [1] amounted to 51325. Under setting [2], this compound yielded a Z-score of -0.7803.
Consider `NC(N)=Nc1nc(CSCCC(N)=NS(N)(=O)=O)cs1` [Famotidine], for which the “Raw Signal” value under setting [5] worked out at 53127. The compound also yielded a Z-score under setting [7] of -0.4143.
In the case of `CC(C)=CCC/C(C)=C/CC/C(C)=C/CSc1ccccc1C(=O)O` [Farnesylthiosalicylic acid], under setting [1], the “Raw Signal” value is reported as 51239. Under setting [2], this compound had a Z-score of -0.7977.
As to `NC(=O)OCC(COC(N)=O)c1ccccc1` [Felbamate], the “Raw Signal” value under setting [3] is on record as 58283. Also, the Z-score under setting [4] was found to be 0.6328.
`CCOC(=O)C1=C(C)NC(C)=C(C(=O)OC)C1c1cccc(Cl)c1Cl` (centres unmarked) [Felodipine]: under setting [1], the “Raw Signal” value amounted to 52611. For the same compound, the Z-score under setting [2] is given as -0.5191.
`CC(C)OC(=O)C(C)(C)Oc1ccc(C(=O)c2ccc(Cl)cc2)cc1` [Fenofibrate]: the “Raw Signal” value under setting [1] is reported as 61843. Under setting [8], this compound displayed a Z-score of 1.356.
Consider `Oc1ccc(C2CNCCc3c2cc(O)c(O)c3Cl)cc1` (centres unmarked) [Fenoldopam bromide], for which, under setting [3], the “Raw Signal” value turned out to be 59808. The compound further registered a Z-score under setting [4] of 0.9425.
For `CC(Cc1ccc(O)cc1)NCC(O)c1cc(O)cc(O)c1` (centres unmarked) [Fenoterol hydrobromide], the “Raw Signal” value under setting [5] was determined as 56195. In addition, under setting [6], the Z-score is recorded as 0.2088.
For the compound `O=C1NCC2(CCN(CCc3ccccc3)CC2)O1` [Fenspiride hydrochloride], the “Raw Signal” value under setting [5] came out at 54758. This compound also had a Z-score under setting [6] of -0.08307.
With `CC(C)(C(=O)O)c1ccc(C(O)CCCN2CCC(C(O)(c3ccccc3)c3ccccc3)CC2)cc1` (centres unmarked) [Fexofenadine hydrochloride], under setting [3], the “Raw Signal” value is 58731. The compound further returned a Z-score under setting [4] of 0.7238.
For the compound `COc1cccc2c1[C@@H]1CN(CCCCn3c(=O)[nH]c4c(sc5ncc(-c6ccccc6)nc54)c3=O)C[C@@H]1CO2` [Fiduxosin hydrochloride], the “Raw Signal” value under setting [5] amounted to 56814. The Z-score under setting [6] is given as 0.3345.
As to `O=C(NCC1CCCCN1)c1cc(OCC(F)(F)F)ccc1OCC(F)(F)F` (centres unmarked) [Flecainide acetate], the “Raw Signal” value under setting [1] was determined as 50763. Besides, under setting [2], the Z-score is reported as -0.8944.
For the compound `CCOC(=O)c1ncn2c1CN(C)C(=O)c1cc(F)ccc1-2` [Flumazenil], under setting [1], the “Raw Signal” value is given as 52634. Also, under setting [2], the Z-score is reported as -0.5144.
For `Fc1ccc(C(c2ccc(F)cc2)N2CCN(C/C=C/c3ccccc3)CC2)cc1` [Flunarizine dihydrochloride], under setting [3], the “Raw Signal” value is on record as 58645. Under setting [4], this compound showed a Z-score of 0.7063.
Regarding `CNCCC(Oc1ccc(C(F)(F)F)cc1)c1ccccc1` (centres unmarked) [Fluoxetine hydrochloride], the “Raw Signal” value under setting [3] turned out to be 60043. For the same compound, the Z-score under setting [4] was 0.9903.
The like results for `OCCN1CCN(CCCN2c3ccccc3Sc3ccc(C(F)(F)F)cc32)CC1` [Fluphenazine dihydrochloride] were, in that order, 57313 and 0.4358.
For the compound `CCOC(=O)Nc1ccc(NCc2ccc(F)cc2)nc1N` [Flupirtine maleate], the “Raw Signal” value under setting [5] was determined as 54811. Also, the Z-score under setting [6] is on record as -0.07231.
In the case of `O=C1NCN(c2ccccc2)C12CCN(CCCC(c1ccc(F)cc1)c1ccc(F)cc1)CC2` [Fluspirilene], the “Raw Signal” value under setting [1] was found to be 52037. Under setting [2], this compound returned a Z-score of -0.6357.
For the compound `CC(C)C(=O)Nc1ccc([N+](=O)[O-])c(C(F)(F)F)c1` [Flutamide], the “Raw Signal” value under setting [1] was found to be 64684. This compound also gave a Z-score under setting [8] of 1.9328.
Take `COCCCC/C(=N\OCCN)c1ccc(C(F)(F)F)cc1` [Fluvoxamine maleate]: the “Raw Signal” value under setting [3] is 56948. The Z-score under setting [4] is given as 0.3617.
`C=C[C@@]1(C)CC(=O)[C@]2(O)[C@@]3(C)[C@@H](O)CCC(C)(C)[C@@H]3[C@H](O)[C@H](OC(C)=O)[C@@]2(C)O1` [Forskolin]: under setting [3], the “Raw Signal” value came to 61603. In addition, the Z-score under setting [4] was determined as 1.307.
As to `Cc1nc2c([nH]1)c(=O)n(C)c(=O)n2Cc1ccco1` [Furafylline], the “Raw Signal” value under setting [5] amounted to 55994. Further, the Z-score under setting [6] is 0.1679.
Take `O=C([O-])c1cc2cc(Cc3cccnc3)ccc2o1.[Na+]` [Furegrelate sodium]: the “Raw Signal” value under setting [5] worked out at 53193. For the same compound, under setting [7], the Z-score is -0.4009.
For `NS(=O)(=O)c1cc(C(=O)O)c(NCc2ccco2)cc1Cl` [Furosemide], the “Raw Signal” value under setting [5] came out at 53546. The compound further had a Z-score under setting [7] of -0.3292.
For the compound `CCCCc1ccc(C(=O)O)nc1` [Fusaric acid], under setting [1], the “Raw Signal” value is listed as 50850. The Z-score under setting [2] is reported as -0.8767.
With `CC(=O)O[C@H]1C[C@@]2(C)[C@@H](C[C@@H](O)[C@H]3[C@@]4(C)CC[C@@H](O)[C@@H](C)[C@@H]4CC[C@@]32C)/C1=C(\CCC=C(C)C)C(=O)[O-].[Na+]` [Fusidic acid sodium], the “Raw Signal” value under setting [5] was 56091. Also, the Z-score under setting [6] is 0.1876.
Consider `NCCCC(=O)O` [GABA], for which, under setting [3], the “Raw Signal” value amounted to 63549. Moreover, the Z-score under setting [4] turned out to be 0.9926.
The like results for `Cl.Cl.Fc1ccc(C(OCCN2CCN(CCCc3ccccc3)CC2)c2ccc(F)cc2)cc1` [GBR-12909 dihydrochloride] were, in that order, 60047 and 0.9911.
As for `Cl.Cl.c1ccc(CCCN2CCN(CCOC(c3ccccc3)c3ccccc3)CC2)cc1` [GBR-12935 dihydrochloride], under setting [1], the “Raw Signal” value is given as 62907. Further, under setting [8], the Z-score is recorded as 1.572.
As for `COc1ccc(CNC(=O)/C=C/c2ccc3[nH]cc(CCN(C)C)c3c2)cc1` [GR 4661], under setting [1], the “Raw Signal” value amounted to 54448. In addition, the Z-score under setting [2] is listed as -0.6103.
